Measurements reported in patent US20230248034A1, “A SWEETENER OR SWEETNESS ENHANCER COMPOSITION” (ANALYTICON DISCOVERY GMBH, priority 2020, published 2023).

Key:
[1] = Organoleptic test in combination with sucrose against sucrose (sucrose enhancement, 2-AFC); format: in vivo; set-up: key: x = detected; conditions: compound below its sweetness perception level in 6% sucrose vs 6% sucrose, 12 to 15 panelists
Method: The isolated pure compounds were dissolved in non-carbonated mineral water (“Evian”) in a concentration of 50 ppm (0.05 mg/ml), 25 ppm (0.025 mg/ml), 12.5 pm (0.0125 mg/ml) and […] (0.00625 mg/ml). The sweet taste of each sample was detected by a panel of 3-4 panelists to detect the sweetness perception level. The highest concentration below the sweetness perception level was used for the evaluation of the sweet taste enhancement of sucrose.
(§1) A solution of the isolated compound in a concentration below the sweetness perception level was dissolved in 6% sucrose solution. The sweet taste of this sample was compared to the sweet taste of a 6% sucrose solution by a panel of 12 to 15 panelists in a two-alternative forced-choice test (2-AFC. E2164-16_Standard Test Method for Directional Difference Test). The panelists were trained to differentiate between the sweetness of a 6% and a 7% Sucrose solution.

[2] = Organoleptic test in combination with Rebaudioside M (Rebaudioside M enhancement, 2-AFC); format: in vivo; set-up: key: x = detected; conditions: compound below its sweetness perception level in 150 ppm Rebaudioside M vs 150 ppm Rebaudioside M, 12 to 15 panelists
Method: The isolated pure compounds were dissolved in non-carbonated mineral water (“Evian”) in a concentration of 50 ppm (0.05 mg/ml), 25 ppm (0.025 mg/ml), 12.5 pm (0.0125 mg/ml) and 6.125 ppm (0.006125 mg/ml). The sweet taste of each sample was detected by a panel of 3-4 panelists to detect the sweetness perception level. The highest concentration below the sweetness perception level was used for the evaluation of the sweet taste enhancement of Rebaudioside M.
as §1, with “compounds” for “compound”, “150 ppm Rebaudioside M” for “6% sucrose”, “150 ppm” for “6%”, “190 ppm Rebaudioside M” for “7% Sucrose”

[3] = Organoleptic test of the compounds against sucrose (sweetness); format: in vivo; set-up: key: 3: sweeter than the control solution; 2: sweetness comparable with the control solution; 1: less sweet than the control solution but still sweet; conditions: 0.4 mg/ml (400 ppm) in non-carbonated mineral water vs sucrose 20 g/l; panel of 3-4 panelists
Method: The isolated pure compound was dissolved in non-carbonated mineral water (“Evian”) in a concentration of 0.4 mg/ml (400 ppm). The sweet taste of each sample was compared by a panel of 3-4 panelists with a solution of sucrose in a concentration of 20 g/l.

[4] = 5% sucrose in water; cited from earlier work

| Compound | Sucrose enhancement [1] | Reb M enhancement [2] | Sweetness [3] | enhancement of the sweetness of sucrose [4] [%] |
| --- | --- | --- | --- | --- |
| C[C@@H]1O[C@@H](O[C@@H]2[C@@H](O[C@@H]3O[C@@H](C)[C@H](O[C@@H]4OC[C@H](O)[C@H](O[C@@H]5OC[C@@H](O)[C@H](O)[C@H]5O)[C@H]4O)[C@@H](OC4OC[C@](O)(CO)[C@H]4O)[C@H]3O)[C@H](OC(=O)[C@]34CCC(C)(C)C[C@H]3C3=CCC5[C@@]6(C)C[C@H](O)[C@H](O[C@@H]7O[C@H](CO[C@@H]8OC[C@H](O)[C@H](O)[C@H]8O)[C@@H](O)[C@H](O)[C@H]7O)C(C)(C)C6CC[C@@]5(C)[C@]3(C)C[C@H]4O)OC[C@H]2O)[C@H](O)[C@H](O)[C@H]1O (stereo partly shown) [Astersaponin C] | x | x | 3 | – |
| C[C@@H]1O[C@@H](O[C@@H]2[C@@H](O[C@@H]3O[C@@H](C)[C@H](O[C@@H]4OC[C@H](O)[C@H](O[C@@H]5OC[C@@H](O)[C@H](O)[C@H]5O)[C@H]4O)[C@@H](O[C@@H]4OC[C@](O)(CO)[C@H]4O)[C@H]3O)[C@H](OC(=O)[C@]34CCC(C)(C)C[C@H]3C3=CCC5[C@@]6(C)CC[C@H](O[C@@H]7O[C@H](CO[C@@H]8OC[C@H](O)[C@H](O)[C@H]8O)[C@@H](O)[C@H](O)[C@H]7O)C(C)(C)C6CC[C@@]5(C)[C@]3(C)C[C@H]4O)OC[C@H]2O)[C@H](O)[C@H](O)[C@H]1O (stereo partly shown) [Astersaponin D] | x | x | 2 | – |
| COc1ccc([C@@H]2CC(=O)c3c(O)cc(O)cc3O2)cc1O [hesperetin] | – | – | – | 41 |
| C[C@@H]1O[C@@H](O[C@H]2[C@H](OC(=O)[C@]34CCC(C)(C)C[C@H]3C3=CC[C@@H]5[C@@]6(C)C[C@H](O)[C@H](O[C@@H]7O[C@H](CO[C@@H]8OC[C@H](O)[C@H](O)[C@H]8O)[C@@H](O)[C@H](O)[C@H]7O)C(C)(C)[C@@H]6CC[C@@]5(C)[C@]3(C)C[C@H]4O)OC[C@@H](O)[C@@H]2O)[C@H](O)[C@H](O)[C@H]1O[C@@H]1OC[C@H](O)[C@H](O[C@@H]2OC[C@@H](O)[C@H](O)[C@H]2O)[C@H]1O [Astersaponin E] | x | x | 2 | – |
| C[C@@H]1O[C@@H](O[C@H]2[C@H](OC(=O)[C@]34CCC(C)(C)C[C@H]3C3=CCC5[C@@]6(C)C[C@H](O)[C@H](O[C@@H]7O[C@H](CO[C@@H]8OC[C@H](O)[C@H](O)[C@H]8O)[C@@H](O)[C@H](O)[C@H]7O)C(C)(C)C6CC[C@@]5(C)[C@]3(C)C[C@H]4O)OC[C@@H](O)[C@@H]2O)[C@H](O)[C@H](O[C@@H]2OC[C@](O)(CO)[C@H]2O)[C@H]1O[C@@H]1OC[C@H](O)[C@H](O[C@@H]2OC[C@@H](O)[C@H](O)[C@H]2O)[C@H]1O (stereo partly shown) [Astersaponin A] | x | x | 2 | – |
| C[C@@H]1O[C@@H](O[C@H]2[C@H](OC(=O)[C@]34CCC(C)(C)C[C@H]3C3=CCC5[C@@]6(C)CC[C@H](O[C@@H]7O[C@H](CO[C@@H]8OC[C@H](O)[C@H](O)[C@H]8O)[C@@H](O)[C@H](O)[C@H]7O)C(C)(C)C6CC[C@@]5(C)[C@]3(C)C[C@H]4O)OC[C@@H](O)[C@@H]2O)[C@H](O)[C@H](O)[C@H]1O[C@@H]1OC[C@H](O)[C@H](O[C@@H]2OC[C@@H](O)[C@H](O)[C@H]2O)[C@H]1O (stereo partly shown) [Astersaponin F] | x | x | 1 | – |
| C[C@@H]1O[C@@H](O[C@H]2[C@H](OC(=O)[C@]34CCC(C)(C)C[C@H]3C3=CCC5[C@@]6(C)CC[C@H](O[C@@H]7O[C@H](CO[C@@H]8OC[C@H](O)[C@H](O)[C@H]8O)[C@@H](O)[C@H](O)[C@H]7O)C(C)(C)C6CC[C@@]5(C)[C@]3(C)C[C@H]4O)OC[C@@H](O)[C@@H]2O)[C@H](O)[C@H](O[C@@H]2OC[C@](O)(CO)[C@H]2O)[C@H]1O[C@@H]1OC[C@H](O)[C@H](O[C@@H]2OC[C@@H](O)[C@H](O)[C@H]2O)[C@H]1O (stereo partly shown) [Astersaponin B] | x | x | 1 | – |
